Experimental data: US20130317037A1, “METHOD OF ADMINISTRATION AND TREATMENT” (GlaxoSmithKline Intellectual Property Development Limited, priority 2010, published 2013)
Where two headings read alike, the source gives them in different places.

Legend:
[1] = test system: SK-BR-3; assay: Panel A proliferation assay (CellTiter-Glo); HER2 Gain ≧5, KRAS WT, PIK3CA WT; assay type: cell-based, human; details: for IC50: Homo sapiens
Method: (§1) A total of 15 breast cancer cell lines were used in this study. These cells were cultured in RPMI-1640 and supplemented with 5% or 10% fetal bovine serum, 2 mM GlutaMAX™ and 1 mM sodium pyruvate, or in growth medium recommended by the suppliers [American Type Culture Collection, Manassas, Va., USA; Developmental Therapeutics Program, National Cancer Institute, Bethesda, Md., USA; German Collection of Microorganisms and Cell Cultures (DSMZ), Braunschweig, Germany; European Collection of Cell Cultures (ECACC), Porton Down, UK]. Cells of each line were seeded into a 384-well microtiter plate at two cell densities. Low density ranges were 300-1800 cells/well, and a high density was 600 to 3600 cells/well). The plating density was determined by the rate of proliferation of the cell line in the absence of any inhibitor and varied amongst cell lines. High plating densities were double that of low density. Each cell density was plated in triplicate. In total there were 30 wells to be treated with increasing concentrations of Compound B for each cell line at each density. In addition, there were 24 wells of dimethyl sulfoxide (DMSO)-treated controls at each density. After seeding, the cells were incubated at 37° C. in 5% CO2 for 24 hours. Subsequently, Compound B was added to each cell line with 10 concentrations. The dosing solution of Compound B was first prepared in DMSO at a master stock concentration of 10 mM. […] were then made of the stock solution to give a range of working stock concentrations; 10.00 mM, 3.164 mM, 1.001 mM, 316.9 μM, 100.3 μM, 31.74 μM, 10.04 μM, 3.178 μM, 1.006 μM and 318.3 nM. The working stock concentrations of Compound B were then dispensed into the seeded cancer cell lines using a Biomek FX liquid handler to give final treatment concentrations of 0.1% of the stock concentration. A similar volume of DMSO without Compound B was dispensed into the 24 control wells of each seeding density at a concentration of 0.1%. Also, a zero-time plate prepared with a similar cell seeding was read for each cell line at each seeding density immediately after the addition of the DMSO control. After a 72 h incubation, an equal volume of the CellTiter-Glo (CellTiter-Glo Luminescent Cell Viability Assay, Promega, Madison, Wis.) to that of the cell culture medium was added into each well of the plate. After the contents were mixed to induce cell lysis and stabilization, cell luminescence was recorded using a SpectraMax M5^e (Molecular Devices, Sunnyvale, Calif., USA)
(§2) The luminescence of Compound B treated cells was compared relative to the average of the 24 DMSO-treated control wells at each cell density for every concentration of Compound B for all triplicate wells. The percent intensity values were used in model 205 of XLfit in Microsoft Excel to calculate gIC50s for the low and high seeding density (a 4 parameter logistical fit). Specifically, the midpoint of the growth window (the gIC50) falls half way between the number of cells at the time of compound addition (T=0) and the growth of control cells treated with DMSO. The gIC50 value serves as a metric for measuring the inhibition of proliferation in cancer cells. The curves for each seeding density for each cell line were manually inspected for both data quality and appropriateness of curve fitting. Where the starting data were poor the curve and subsequent gIC50s were excluded from further analysis. Cell line seedings were considered of poor quality when the r^2 value of the fitted curve was <0.75. Finally, where data quality permits, the Ymin values (defined as the maximum growth inhibition relative to the cell density at Time-zero) were calculated as a measure of cytotoxicity where data were of reasonable quality.

[2] = test system: UACC-812; assay: as above; assay type: cell-based, human; details: for IC50: Homo sapiens
Method: as §1, §2

[3] = test system: SUM159PT; assay: cells; assay type: cell-based
Outline: (§3)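 3-day proliferation, NCI/DTP format; 8-pt 1:5 serial dilution in DMSO; time-0 baseline plate read at drug addition.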

[4] = test system: MDAMB361; assay: cells; assay type: cell-based
Outline: as §3

[5] = test system: 600MPE; assay: cells; assay type: cell-based
Outline: as §3

[6] = test system: AU565; assay: cells; assay type: cell-based
Outline: as §3

[7] = test system: HCC1419; assay: cells; assay type: cell-based
Outline: as §3

In the case of COc1ncc(-c2ccc3nccc(-c4ccnnc4)c3c2)cc1NS(=O)(=O)c1ccc(F)cc1F [Compound B, 2,4-difluoro-N-{2-(methyloxy)-5-[4-(4-pyridazinyl)-6-quinolinyl]-3-pyridinyl}benzenesulfonamide], the IC50 ([1]; SK-BR-3, high seeding density, 72 h, read-out: High Density gIC50) is reported as 4.2 nM, the IC50 ([1]; SK-BR-3, low seeding density, 72 h, read-out: Low Density gIC50) is reported as 2.9 nM and the IC50 ([1]; SK-BR-3, mean of low and high density, read-out: Mean gIC50) is reported as 3.55 nM. For the same compound, the “High Density Y-Min” value ([1]; SK-BR-3, high density, % of cells at T = 0) was 54.5%, the “Low Density Y-Min” value ([1]; SK-BR-3, low density, % of cells at T = 0) was 52.3% and the IC50 ([2]; UACC-812, high seeding density, 72 h, read-out: High Density gIC50) was 0.1 nM. For the same compound, the IC50 ([2]; UACC-812, low seeding density, 72 h, read-out: Low Density gIC50) was 0.1 nM, the IC50 ([2]; UACC-812, mean of low and high density, read-out: Mean gIC50) was 0.1 nM and the “High Density Y-Min” value ([2]; UACC-812, high density, % of cells at T = 0) was 12.6%. The “Low Density Y-Min” value ([2]; UACC-812, low density, % of cells at T = 0) was 12.1%, the CC50 ([3]; Homo sapiens, SUM-159-PT, 50% net loss of cells vs time 0, read-out: LC50 (the source's name)) was over 33000 nM and the IC50 ([3]; Homo sapiens, SUM-159-PT, 72 h, three-day drug treatment, read-out: gIC50) was 10.4 nM. The TGI ([3]; total growth inhibition) was 940.6 nM, the IC50 ([4]; Homo sapiens, MDA-MB-361, 72 h, MDAMB361, three-day drug treatment, read-out: gIC50) was 1.7 nM and the CC50 ([4]; Homo sapiens, MDA-MB-361, MDAMB361, 50% net loss of cells vs time 0, read-out: LC50 (the source's name)) was 26.9 nM. The TGI ([4]; MDAMB361, total growth inhibition) was 4.9 nM, the CC50 ([5]; Homo sapiens, 50% net loss of cells vs time 0, read-out: LC50 (the source's name)) was 875 nM and the IC50 ([5]; Homo sapiens, 72 h, three-day drug treatment, read-out: gIC50) was 6.8 nM. For the same compound, the TGI ([5]; total growth inhibition) was 33.5 nM, the TGI ([6]; AU565, total growth inhibition) was 6700.0 nM and the IC50 ([6]; Homo sapiens, 72 h, AU565, three-day drug treatment, read-out: gIC50) was 7.2 nM. The CC50 ([6]; Homo sapiens, AU565, 50% net loss of cells vs time 0, read-out: LC50 (the source's name)) was over 33000 nM, the TGI ([7]; HCC1419, total growth inhibition) was 5.2 nM and the IC50 ([7]; Homo sapiens, 72 h, HCC1419, three-day drug treatment, read-out: gIC50) was 1.5 nM. For the same compound, the CC50 ([7]; Homo sapiens, HCC1419, 50% net loss of cells vs time 0, read-out: LC50 (the source's name)) was 514 nM.
